Where two headings read alike, the source gives them in different places. A value given as a limit tells only on which side of the number the result lay.

The target in one series is c-Myc template DNA. Nature of the series: Quadruplex binding assay (STOP / Taq polymerase arrest, capillary electrophoresis). The format is biochemical. To be noted: concentration at which 50% of the DNA was arrested (arrested:full-length 1:1). As to the method:
Generally, a 5′-fluorescent-labeled (FAM) primer (P45, 15 nM) was mixed with template DNA (15 nM) in a Tris-HCL buffer (15 mM Tris, pH 7.5) containing 10 mM MgCl2, 0.1 mM EDTA and 0.1 mM mixed deoxynucleotide triphosphates (dNTP's). In one example, the FAM-P45 primer (5′ -6FAM-[…] CAATT-3′) (SEQ ID NO. 17) and the c-Myc template DNA (5′-[…] […] […]-3′) (SEQ ID NO. 18) were synthesized and HPLC purified by Applied Biosystems. The mixture was denatured at 95° C. for 5 minutes and, after cooling down to room temperature, was incubated at 37° C. for 15 minutes.
After cooling down to room temperature, 1 mM KCl2 and the test compound (various concentrations) were added and the mixture incubated for 15 minutes at room temperature. The primer extension was performed by adding 10 mM KCl and Taq DNA Polymerase (2.5 U/reaction, Promega) and incubating at 70° C. for 30 minutes. The reaction was stopped by adding 1 μl of the reaction mixture to 10 μl Hi-Di Formamide mixed and 0.25 μl LIZ120 size standard. Hi-Di Formamide and LIZ120 size standard were purchased from Applied Biosystems. The partially extended quadruplex arrest product was between 61 or 62 bases long and the full-length extended product was 99 bases long. The products were separated and analyzed using capillary electrophoresis. Capillary electrophoresis was performed using an ABI PRISM 3100-Avant Genetic Analyzer. The assay was performed using compounds described above and results are shown in Table 1. μM concentrations reported in Table 1 are concentrations at which 50% of the DNA was arrested in the assay (ie., the ratio of shorter partially extended DNA (arrested DNA) to full-length extended DNA is 1:1).
Stop Assays. Stop assays are high throughput, first-pass screens for detecting drugs that bind to and stabilize the target G-quadruplex. Generally, DNA template oligonucleotide is created, which contains the nucleotide sequence of the “target” quadruplex against which drug screening is desired. A fluorescently labeled primer DNA is then annealed to the 3′ end of the template DNA. A DNA polymerase such as Taq polymerase is then introduced to synthesize a complementary strand of DNA by extending from the fluorescently labeled primer. When the progress of the Taq polymerase is unhindered, it synthesizes a full-length copy of the template. […] If, however, the test drug selectively binds to and stabilizes the quadruplex, the progress of polymerase arrests only at the quadruplex, and a characteristic “Stop Product” is synthesized.
Compounds are initially screened at a single concentration, and “hits” are re-assayed over a range of doses to determine an IC50 value (i.e., the concentration of drug required to produce an arrest product/full-length product ratio of 1:1). These products are visualized by capillary electrophoresis.

The test system of a further series is HCT-116. The series can be described thus: MTS cell proliferation assay, HCT-116. The format is cell-based. As for the experimental part:
MTS assays. Antiproliferative effects of anticancer drugs are tested by the CellTiter 96 AQueous assay (Promega, WI), which is a colorimetric assay for determining the number of viable cells. (See, e.g., Wang, L., et al., Methods Cell Sci (1996) 18:249-255). Generally, cells (2,000 to 5,000 cells/well) are seeded on 96 well flat bottom plates (Corning, NY) in 100 μl of culture medium without any anticancer drug on day 0, and the culture medium is exchanged for that contained anticancer drugs at various concentrations on day 1. After incubation for 3 days under normal growth conditions (on day 4), the monolayers are washed once in PBS, and the medium is switched to 100 μl of PBS in each of the 96 well plate. After mixing MTS and PMS at the ratio of 20:1, 20 μl of MTS/PMS solution is added to each of the 96 well plate and incubated for 4 hours in a humidified atmosphere of 5% CO2 at 37° C. The absorbance is read at 490 nm using FLUOstar Galaxy 96 well plate reader (BMG Labtechnologies, Germany).
For orientation: Formazan colour is commonly taken as a measure of viable cells.

The subject of the next series is HCT116 cells. Nature of the series: HCT-116 colorectal cancer xenograft model, intravenous dosing. The conditions noted are these: IV bolus, nu/nu mice. The series is classed as in vivo. As for the experimental part: 6 wk old female nu/nu mice were purchased from Taconic Farms, Germantown N.Y. They were injected with 5×10^6 HCT116 cells SQ in right flank. When tumors reached sufficient size for study, they were randomized into groups. • Vehicle: 242.9 mm^3 • Test compound: 251.0 mm^3
Animals dosed by bolus injection—IV through lateral tail vein for five consecutive days. Caliper measurements were taken on Day 1, 4, 6.
6 wk old female nu/nu mice were purchased from Simonsen Labs, Gilroy, Calif. They were injected with 5×10^6 HCT116 cells SQ in right flank. When tumors reached sufficient size for study, they were randomized into groups. • Vehicle: 101.9 mm^3 • Test compound: 152.8 mm^3
Animals dosed by bolus injection—IV through lateral tail vein for fourteen consecutive days. Caliper measurements were taken on Day 1, 3, 5, 7, 10, 12, 14, and 18.
6 wk old female nu/nu mice were purchased from Simonsen Labs, Gilroy, Calif. They were injected with 5×10^6 HCT116 cells SQ in right flank. When tumors reached sufficient size for study, they were randomized into groups. • Vehicle: 114.6 mm^3 • Test compound: 106.1 mm^3 • Test compound: 84.1 mm^3
Animals dosed by bolus injection—IV through lateral tail vein for fourteen consecutive days. Caliper measurements were taken on Day 1, 4, 6, 8, 12, and 15.
6 wk old female nu/nu mice were purchased from Taconic Farms, Germantown N.Y. They were injected with 5×10^6 HCT116 cells SQ in right flank. When tumors reached sufficient size for study, they were randomized into groups. • Vehicle: 242.9 mm^3 • Test compound: 252.1 mm^3
Animals dosed by bolus injection—IV through lateral tail vein for five consecutive days. Caliper measurements were taken on Day 1, 4, and 6.
6 wk old female nu/nu mice were purchased from Taconic Farms, Germantown N.Y. They were injected with 5×10^6 HCT116 cells SQ in right flank. When tumors reached sufficient size for study, they were randomized into groups. • Vehicle: 242.9 mm^3 • Test compound: 236.1 mm^3
6 wk old female nu/nu mice were purchased from Taconic Farms, Germantown N.Y. They were injected with 5×10^6 HCT116 cells SQ in right flank. When tumors reached sufficient size for study, they were randomized into groups. • Vehicle: 242.9 mm^3 • Test compound: 254.7 mm^3
6 wk old female nu/nu mice were purchased from Taconic Farms, Germantown N.Y. They were injected with 5×10^6 HCT116 cells SQ in right flank. When tumors reached sufficient size for study, they were randomized into groups.
Animals dosed by bolus injection—IV through lateral tail vein for nine consecutive days. Caliper measurements were taken on Day 1, 3, 5, 7, and 9.
Animals dosed by bolus injection—IV through lateral tail vein for seven consecutive days. Caliper measurements were taken on Day 1, 3, 5, and 7.

[1] abbreviates: Homo sapiens, HCT-116, HCT-116, Table 1A, read-out: HCT-116 MTs.
The mark [2] stands for this setting: 25 mg/kg, five consecutive days.
[3] abbreviates: 12.5 mg/kg, fourteen consecutive days.
The mark [4] stands for this setting: different dose levels, fourteen consecutive days.
Where [5] appears, read: Homo sapiens, HCT-116, M CELL HCT-116, Table 1C, read-out: M DATA.
Setting [6] is: 25 and 12.5 mg/kg, seven consecutive days.

Regarding `CN1CCCC1CCNC(=O)c1c(=O)c2cc(SCCc3cnccn3)ccc2n2c1sc1ccccc12` (stereo not shown), the IC50 came out at 10 µM on c-Myc template DNA and 6.1 µM in the series on HCT-116 (setting [1]). As for `COc1ccc2c(c1)sc1c(C(=O)NCCC3CCCN3C)c(=O)c3cc(F)c(SCCc4cnccn4)cc3n12` (stereo not shown), the IC50 at c-Myc template DNA was 9.3 µM; with HCT-116 (setting [1]), 5.7 µM.

Turning to `CN1CCCC1CCNC(=O)c1c(=O)c2cc(F)c(SCCc3cnccn3)cc2n2c1sc1cc(Cl)ccc12` (stereo not shown), the values for the IC50 on c-Myc template DNA and with HCT-116 (setting [1]) were 1.7 µM and 3.57 µM, respectively. For `CC(C)N1CCN(c2cc3c(cc2F)c(=O)c(C(=O)NCCN2CCCC2)c2sc4ccccc4n23)CC1`, in that order: 9 µM and 0.3 µM. As to `CC(C)N1CCN(c2cc3c(=O)c(C(=O)NCCC4CCCN4C)c4sc5ccccc5n4c3cc2Cl)CC1` (stereo not shown), the IC50 at c-Myc template DNA is over 15 µM.

For the compound `Nc1ccccc1Sc1c(F)cc2c(=O)c(C(=O)NCCN3CCCC3)c3sc4ccccc4n3c2c1F`, the results for the IC50 at c-Myc template DNA and in the series on HCT-116 (setting [1]) were 15 µM and 2.4 µM, respectively. Take `O=C(NCCN1CCCC1)c1c(=O)c2cc(F)c(N3CCC(c4cnccn4)C3)c(F)c2n2c1sc1ccccc12` (stereo not shown): the values for the IC50 on c-Myc template DNA and in the series on HCT-116 (setting [1]) were 11.6 µM and 3.5 µM, respectively. For the compound `CN1CCCC1CCNC(=O)c1c(=O)c2cc(F)c(N3CCC(c4cnccn4)C3)cc2n2c1sc1ccccc12` (stereo not shown), the IC50 on c-Myc template DNA came to 1.3 µM; in the series with HCT-116 (setting [1]) it was 3.4 µM. Consider `CN1CCCC1CCNC(=O)c1c(=O)c2cc(F)c(N3CCC(c4cnccn4)C3)cc2n2c3ccccc3n(C)c12` (stereo not shown), for which the IC50 on c-Myc template DNA is 10.5 µM; in the series on HCT-116 (setting [1]), 0.7 µM. `Cn1c2ccccc2n2c3cc(N4CCC(c5cnccn5)C4)c(F)cc3c(=O)c(C(=O)NCCN3CCCC3)c12` (stereo not shown): the IC50 on c-Myc template DNA was 8.2 µM; in the series on HCT-116 (setting [1]), 0.1 µM. On the same counts, the results for `CN1CCCC1CCNC(=O)c1c(=O)c2cc(F)c(SCCc3cnccn3)cc2n2c3ccccc3n(C)c12` (stereo not shown) are 15 µM and 2.3 µM. On the same counts, the results for `Cn1c2ccccc2n2c3cc(SCCc4cnccn4)c(F)cc3c(=O)c(C(=O)NCCN3CCCC3)c12` are 15 µM and 0.3 µM. On the same counts, the results for `Cn1c2ccccc2n2c3cc(F)c(F)cc3c(=O)c(C(=O)NCCN3CCCC3)c12` are 15 µM and 0.3 µM. Turning to `CC(C)N1CCN(c2cc3c(cc2F)c(=O)c(C(=O)NCCC2CCCN2C)c2n(C)c4ccccc4n32)CC1` (stereo not shown), the IC50 on c-Myc template DNA stood at 15 µM; in the series on HCT-116 (setting [1]) it was 0.3 µM. In the case of `CC(C)N1CCN(c2cc3c(cc2F)c(=O)c(C(=O)NCCN2CCCC2)c2n(C)c4ccccc4n32)CC1`, the IC50 at c-Myc template DNA was over 15 µM. As for `CC(C)N1CCN(c2nc3c(cc2F)c(=O)c(C(=O)NCCC2CCCN2C)c2sc4ccc(Cl)cc4n23)CC1` (stereo not shown), in the series with HCT116 cells (setting [2]), the “activity in HCT116 xenograft” value is “activity” and the adverse effects result is recorded as “no adverse effects observed”.

In the case of `CC(=O)N1CCN(c2ccc3c(=O)c(C(=O)NCCN4CCCC4)c4n(C)c5ccccc5n4c3n2)CC1`, in the series with HCT116 cells (setting [3]), the “activity in HCT116 xenograft” value is given as “activity” and the adverse effects entry is “no adverse effects observed”. In the series on HCT116 cells (setting [4]), the “activity in HCT116 xenograft” value is recorded as “dose dependent activity” and the adverse effects result was “no adverse effects observed”. Turning to `NC1CCN(c2nc3c(cc2F)c(=O)c(C(=O)NCCN2CCCC2)c2sc4ccccc4n23)C1` (stereo not shown), in the series with HCT116 cells (setting [2]), the “activity in HCT116 xenograft” value was “activity” and the adverse effects result is listed as “no adverse effects observed”. Turning to `CN1CCCC1CCNC(=O)c1c(=O)c2cc(F)c(SCCc3cnccn3)cc2n2c1sc1ccccc12` (stereo not shown) [drawing 14], the IC50 on c-Myc template DNA was found to be 7.2 µM; in the series on HCT-116 (setting [1]), 1.1 µM. On the same counts, the results for `O=C(NCCN1CCCC1)c1c(=O)c2cc(F)c(SCCc3cnccn3)cc2n2c1sc1ccccc12` [drawing 15] are 5.8 µM and 0.57 µM. As for `O=C(NCCN1CCCC1)c1c(=O)c2cnc(N3CCCC3)nc2n2c1sc1ccc(Cl)cc12` [drawing 212], the IC50 with HCT-116 (M CELL HCT-116, Table 1C, read-out: M DATA) came out at 0.21 µM. In the case of `O=C(NCCN1CCCC1)c1c(=O)c2ccc(NCCN3CCOCC3)nc2n2c1sc1ccccc12` [drawing 307], the IC50 with HCT-116 (setting [5]) was 0.02 µM. The same measure, in the same setting: with `CN(C)CCN(C)c1ccc2c(=O)c(C(=O)NCCC3CCCN3C)c3sc4ccccc4n3c2n1` (stereo not shown) [drawing 385] the figure was 0.02 µM. On to `CC(=O)N1CCN(c2ncc3c(=O)c(C(=O)NCCN4CCCC4)c4sc5ccccc5n4c3n2)CC1` [drawing 653], for which, in the series with HCT116 cells (setting [2]), the “activity in HCT116 xenograft” value is recorded as “activity” and the adverse effects result is “no adverse effects observed”. For `O=C(NCCN1CCCC1)c1c(=O)c2cnc(N3CCCC3)nc2n2c1sc1ccccc12` [drawing 654], in the series with HCT116 cells (setting [2]), the “activity in HCT116 xenograft” value is reported as “activity” and the adverse effects result was “no adverse effects observed”. As to `CC(=O)N1CCN(c2nc3c(cc2F)c(=O)c(C(=O)NCCN2CCCC2)c2n(C)c4ccccc4n32)CC1` [drawing 655], the adverse effects result with HCT116 cells (25 and 12.5 mg/kg, nine consecutive days) is given as “no adverse effects observed”. Besides, the “activity in HCT116 xenograft” value in the series with HCT116 cells (high dose (25 mg/kg), nine consecutive days) was “limited activity”; in the series on HCT116 cells (mid dose (12.5 mg/kg), nine consecutive days), “no activity”. Turning to `CN1CCCC1CCNC(=O)c1c(=O)c2ccc(N3CCC(c4cnccn4)C3)nc2n2c1sc1ccc(Cl)cc12` (stereo not shown) [drawing 656], in the series on HCT116 cells (setting [6]), the “activity in HCT116 xenograft” value is reported as “excellent activity with minimal dose dependency” and the adverse effects result is “No adverse effects were observed”.

For the origin of these results see patent publication US7816406B2, “Quinolone analogs” (Cylene Pharmaceuticals, Inc., priority 2004, dated 2010).
